Measurements reported in ChEMBL document CHEMBL4680350, “Novel penta-1,4-diene-3-one derivatives containing quinazoline and oxime ether fragments: Design, synthesis and bioactivity” (Bioorg Med Chem, 2021).
Calls of active or inactive are those of the source. The rule behind the calls is not given here.

Key:
SMMC-7721 [1] = test: Induction of apoptosis in human SMMC-7721 cells assessed as increase in caspase 3 level upto 20 uM incubated for 48 hrs by Western blot analysis; assay type: functional, cell-based; conditions: dose microM <=20, time 48.0 hrs
SMMC-7721 [2] = test: Induction of cell cycle arrest in human SMMC-7721 cells assessed as accumulation of cells at […] measured after 24 hrs by flow cytometry; assay type: functional, cell-based
SMMC-7721 [3] = test: Antimigratory activity against human SMMC-7721 cells assessed as inhibition of cell migration at 10 uM measured after 12 hrs by cell scratch assay; assay type: functional, cell-based
SMMC-7721 [4] = test: Antimigratory activity against human SMMC-7721 cells assessed as inhibition of cell migration measured after 12 hrs by cell scratch assay; assay type: functional, cell-based
SMMC-7721 [5] = test: Anticancer activity against human SMMC-7721 cells assessed as inhibition of cell proliferation at 1 uM measured after 72 hrs by MTT assay; assay type: functional
SMMC-7721 [6] = test: Anticancer activity against human SMMC-7721 cells assessed as inhibition of cell proliferation at 10 uM measured after 72 hrs by MTT assay; assay type: functional
SMMC-7721 [7] = test: Induction of apoptosis in human SMMC-7721 cells assessed as increase in PARP-1 level t 1 to 20 uM incubated for 48 hrs by Western blot analysis; assay type: functional, cell-based; conditions: dose 1-20 µM
SMMC-7721 [8] = test: Anticancer activity against human SMMC-7721 cells assessed as inhibition of cell proliferation measured after 72 hrs by MTT assay; assay type: functional, cell-based; conditions: SMMC-7721, 72 h
SMMC-7721 [9] = test: Cytotoxicity against human SMMC-7721 cells assessed as change in cell morphology at 1 uM incubated for 24 hrs; assay type: functional, cell-based
SMMC-7721 [10] = test: Cytotoxicity against human SMMC-7721 cells assessed as change in cell morphology at 10 uM incubated for 48 hrs; assay type: functional, cell-based
SMMC-7721 [11] = test: Induction of cell cycle arrest in human SMMC-7721 cells assessed as accumulation of cells at G2/M measured after 24 hrs by flow cytometry; assay type: functional, cell-based
SMMC-7721 [12] = test: Induction of apoptosis in human SMMC-7721 cells as late apoptotic cells at 20 uM measured after 48 hrs by annexin V-FITC/PI based flow cytometric analysis relative to control; assay type: functional
SMMC-7721 [13] = test: Induction of apoptosis in human SMMC-7721 cells assessed as increase in PARP-1 level t 1 to 5 uM incubated for 48 hrs by Western blot analysis; assay type: functional, cell-based; conditions: dose 1-5 µM
SMMC-7721 [14] = test: Induction of apoptosis in human SMMC-7721 cells assessed as decrease in PARP-1 level t 10 to 20 uM incubated for 48 hrs by Western blot analysis; assay type: functional, cell-based; conditions: dose 10-20 µM
SMMC-7721 [15] = test: Induction of apoptosis in human SMMC-7721 cells as late apoptotic cells at 5 uM measured after 48 hrs by annexin V-FITC/PI based flow cytometric analysis relative to control; assay type: functional
SMMC-7721 [16] = test: Induction of apoptosis in human SMMC-7721 cells at 5 uM measured after 48 hrs by annexin V-FITC/PI based flow cytometric analysis relative to control; assay type: functional
SMMC-7721 [17] = test: Induction of apoptosis in human SMMC-7721 cells at 1 uM measured after 48 hrs by annexin V-FITC/PI based flow cytometric analysis relative to control; assay type: functional

SMILES	inhibition at 1 µM (SMMC-7721 [5]) [%]	inhibition at 10 µM (SMMC-7721 [6]) [%]	further results
Clc1ccc(COc2ccccc2/C=C/C(/C=C/c2ccccn2)=N/Oc2ncnc3ccccc23)c(Cl)c1	33.3	87.5	Activity (SMMC-7721 [1]): Active; Activity (SMMC-7721 [2]): Active; Activity (SMMC-7721 [3]): inactive; Activity (SMMC-7721 [4]): inactive; Activity (SMMC-7721 [7]): Active; IC50 (SMMC-7721 [8]): 8550 nM
Clc1ccc(COc2ccc(/C=C/C(/C=C/c3ccccn3)=N/Oc3ncnc4cc(Cl)ccc34)cc2)c(Cl)c1		23.6	
Cc1cccc2ncnc(O/N=C(\C=C\c3ccccn3)/C=C/c3ccccc3OCc3ccc(Cl)cc3)c12	93.4	94.5	
Cc1cccc2ncnc(O/N=C(/C=C/c3ccc(OCc4ccccc4Cl)cc3)\C=C\c3ccccn3)c12	77	84.7	
Cc1cccc(COc2ccc(/C=C/C(/C=C/c3ccccn3)=N/Oc3ncnc4cccc(C)c34)cc2)c1	93.4	97	
Cc1cccc2ncnc(O/N=C(\C=C\c3ccccn3)/C=C/c3ccccc3OCc3ccccc3Cl)c12	86.8	95.7	
Clc1ccccc1COc1ccc(/C=C/C(/C=C/c2ccccn2)=N/Oc2ncnc3ccccc23)cc1	10.1	96.9	
Fc1ccccc1COc1ccccc1/C=C/C(/C=C/c1ccccn1)=N/Oc1ncnc2cc(Cl)ccc12	94.2	94.8	Activity (SMMC-7721 [9]): Active; Activity (SMMC-7721 [10]): Active
Clc1ccccc1COc1ccccc1/C=C/C(/C=C/c1ccccn1)=N/Oc1ncnc2ccccc12	95.7	96	
Clc1ccc(COc2ccc(/C=C/C(/C=C/c3cccs3)=N/Oc3ncnc4ccccc34)cc2)cc1	89.3	97.5	
Clc1ccc(COc2ccc(/C=C/C(/C=C/c3ccccn3)=N/Oc3ncnc4cc(Cl)ccc34)cc2)cc1	67.4	88.1	Activity (SMMC-7721 [1]): Active; Activity (SMMC-7721 [11]): Active; Activity (SMMC-7721 [12]): 88%; Activity (SMMC-7721 [3]): inactive; Activity (SMMC-7721 [4]): inactive; Activity (SMMC-7721 [9]): Active; Activity (SMMC-7721 [10]): Active; Activity (SMMC-7721 [7]): Active; IC50 (SMMC-7721 [8]): 630 nM
Clc1ccc2c(O/N=C(\C=C\c3ccccn3)/C=C/c3ccccc3OCc3ccccc3Cl)ncnc2c1	94.8	94.5	
Clc1ccc(COc2ccc(/C=C/C(/C=C/c3ccccn3)=N/Oc3ncnc4ccccc34)cc2)cc1	91.2	94.4	
Fc1ccccc1COc1ccc(/C=C/C(/C=C/c2ccccn2)=N/Oc2ncnc3cc(Cl)ccc23)cc1	81.1	91.2	
Clc1ccc(COc2ccc(/C=C/C(/C=C/c3ccccn3)=N/Oc3ncnc4ccccc34)cc2)c(Cl)c1		89.6	
Clc1ccc(COc2ccccc2/C=C/C(/C=C/c2ccccn2)=N/Oc2ncnc3cc(Cl)ccc23)c(Cl)c1	23.6	91.8	Activity (SMMC-7721 [1]): Active; Activity (SMMC-7721 [11]): Active; Activity (SMMC-7721 [3]): inactive; Activity (SMMC-7721 [4]): inactive; IC50 (SMMC-7721 [8]): 10400 nM
Clc1ccc(COc2ccccc2/C=C/C(/C=C/c2ccccn2)=N/Oc2ncnc3cc(Cl)ccc23)cc1	94	94.8	
Cc1cccc2ncnc(O/N=C(\C=C\c3ccccn3)/C=C/c3ccccc3OCc3ccc(Cl)cc3Cl)c12	90.8	93.9	
Cc1cccc(COc2ccc(/C=C/C(/C=C/c3ccccn3)=N/Oc3ncnc4ccccc34)cc2)c1	69.2	97.5	Activity (SMMC-7721 [13]): Active; Activity (SMMC-7721 [14]): Active; Activity (SMMC-7721 [1]): Active; Activity (SMMC-7721 [11]): Active; Activity (SMMC-7721 [15]): 99.4%; Activity (SMMC-7721 [16]): 99.9%; Activity (SMMC-7721 [17]): 23%; Activity (SMMC-7721 [3]): inactive; Activity (SMMC-7721 [4]): inactive; Activity (SMMC-7721 [9]): Active; Activity (SMMC-7721 [10]): Active; IC50 (SMMC-7721 [8]): 640 nM
Clc1ccc2c(O/N=C(/C=C/c3ccc(OCc4ccccc4Cl)cc3)\C=C\c3ccccn3)ncnc2c1	18.1	84.7	
Nc1ccn([C@@H]2O[C@H](CO)[C@@H](O)C2(F)F)c(=O)n1 [GEMCITABINE]	38.5	61.5	IC50 (SMMC-7721 [8]): 1400 nM
Cc1cccc(COc2ccc(/C=C/C(/C=C/c3ccccn3)=N/Oc3ncnc4cc(Cl)ccc34)cc2)c1	78.6	95.6	
